US6639130B2, “Plant sterol reductases and uses thereof” (The General Hospital Corporation, priority 1996, dated 2003)
“Also recorded” adds a separate entry of the source.

Key:
[1] = tested on: wild-type seedlings; assay: Treatment of wild-type seedlings with synthetic cytokinin (phenocopy of ell mutant morphology); assay type: in vivo, Arabidopsis; conditions: 30 μM; in the dark or light
From the text: From left to right in both FIGS. 1A-1B: wild-type plant; wild-type plant+2ip; ell; and ell+2ip.

[2] = tested on: ell seedlings; assay: Exogenous feeding of brassinolide to ell seedlings germinated on agar plates; assay type: in vivo, Arabidopsis; conditions: 1 μM in growth medium (agar plates); dark or light
Procedure: FIGS. 13A-13B are photographs showing that the ell phenotype was not corrected by exogenous feeding of brassinolide (1 μM) in either dark (FIG. 13A) or light (FIG. 13B). From left to right in FIGS. 13A-13B: wild-type; ell; wild-type+brassinolide; and ell+brassinolide.
To determine whether the ell mutant phenotype is corrected by exogenous feeding of brassinolide, we germinated ell seedlings on agar plates containing 1 μM brassinolide or 1 μM 24-epibrassinolide (Li et al., Science 272: 398, 1996). […] Thus, it appears that steroid compounds other than BRs are needed to restore an ell mutant to a normal growth and development phenotype, as reflected by the pleiotropic phenotypes such as stunted roots (FIG. 2) and impaired embryogenesis (FIGS. 7A-7F).

Row | SMILES | ell mutant seedling morphology phenocopied in wild-type seedlings [1] | correction of the ell mutant phenotype by exogenous feeding [2]
1 | CC(C)=CCNc1ncnc2nc[nH]c12 [2ip, dimethylallylamino-purine] | phenocopied | –
2 | CC(C)[C@@H](C)[C@@H](O)[C@H](O)[C@@H](C)[C@H]1CC[C@H]2[C@@H]3COC(=O)[C@H]4C[C@H](O)[C@H](O)C[C@]4(C)[C@H]3CC[C@]12C [24-epibrassinolide] | – | did not alter the mutant phenotype
3 | CC(C)[C@H](C)[C@@H](O)[C@H](O)[C@@H](C)[C@H]1CC[C@H]2[C@@H]3COC(=O)[C@H]4C[C@H](O)[C@H](O)C[C@]4(C)[C@H]3CC[C@]12C [brassinolide] | – | not corrected; also recorded: did not alter the mutant phenotype
